Results reported in US20020049157A1, “Use of proteasome inhibitors for treating cancer, inflammation, autoimmune disease, graft rejection and septic shock” (priority 1998, published 2002).

Experiments:
Jurkat cells = experiment: Respiration (O2 consumption) of Jurkat cells, oxygen electrode; type: cell-based
Source text: The function of Complex I of digitonin (Dig)-permeated Jurkat cells was blocked by rotenone (Rot), and the respiration was resumed by adding succinate (Suc), which provides electrons to Complex II directly and thus bypasses Complex I. The maximal respiration was achieved by adding CCCP (carbonyl cyanide m-chlorophenylhydrazone), which uncouples the oxidation and phosphorylation. The respiration could be blocked by antimycin A (Ant), which inhibits […]. Curves 1 and 6 represent positive controls of rat kidney mitochondria. Curves 2 and 5 represent normals untreated Jurkat cells. Curves 3 and 4 represent Jurkat cells treated with lactacystin (6 μM) for 2 h and 4 h, respectively.
Complex III in the respiration chain was blocked at Complex III antimycin (Ant), and the electron flow was resumed by addiind ascorbate (Asc) and TMPD (tetramethyl-p-phenyl-enediamine).
The assay system is identical to that described in FIG. 16. Jurkat cells were treated with LAC for 4 h (curve 3). The decoupling reagent used in this experiment to achieve maximal respiration is FCCP (carbonylcyanide-p-trifluoromethoxyphenylhydrazone).
The Jurkat Cells (JC) (30×10^6/ml) or rat kidney proximal tubules mitochondria (RKM) (0.5 mg of protein/ml) were incubated in 1 ml measuring chamber at 37° C. in a respiration buffer containing 200 mM sucrose, 5 mM MgCl2, 5 mM KH2PO4, and 30 mM HEPES-Tris (pH 7.5). During respiration experiments following substrates and inhibitors were used: 0.005% Digitonine (Dig); 10 mM Succinate (Suc); 1 mM Ascorbate (Asc); 0.4 mM tetramethyl-p- phenylenediamine (TMPD); 1 μM CCCP, 1 μM FCCP; 0.1 μM Rotenone (Rot); 50 nM Antimycin A (Anti); 1 mM KCN; 100 μM Cytochrome C (Cyt C). The respiration rate of the Jurkat Cells and mitochondria was measured polarographically with a Clarke oxygen electrode (Yellow Springs Instruments, Yellow Springs, Ohio, U.S.A.) using 1 ml thermojacketed chamber. Oxygen concentration was calibrated with air-saturated buffer using Hypoxanthine—Xanthine Oxidase—Catalase system (“chemical zero”). Oxygen consumption was continuously recorded using a “MacLab/8” (Analog Digital Instruments, U.S.A.) connected to a Macintosh SE computer and the MacLab Chart v.3.3.4 software. Rates of oxygen consumption are expressed as ng-atoms of oxygen/min.

proteasome = experiment: Proteasome activity in lysates of LAC-pretreated Jurkat cells (proteinase assay, sLLVY-MCA); type: cell-based; details: for proteasome activity in Jurkat cells: 3 h preincubation with LAC 6 μM
Method: B. The inhibitory effect of LAC on the proteasome activity was reversible in the cells Jurkat cells were pretreated with LAC (6 μM) in culture medium for 3 h. The cells were washed and recultured at 0.5×10^6 cells/ml for 0 h, 5 h or 21 h. The cells were then harvested, washed and sonicated. The lysate protein (20 μg/sample) was assayed for its proteinase activity under a condition at which 90% of the activity was attributed to the proteasome. The samples were in duplicates. The result is expressed as relative fluorescence intensity at 440 nm.
We used Jurkat cells that have high constitutive proteasome activity to evaluate the duration of LAC's effect once the drug entered the cells. Jurkat cells were treated with LAC (6 μM) for 3 h, which was sufficiently long for the compound to enter the cells as shown above. The cells were then thoroughly washed and recuitured, and they were harvested at 0 h, 5 h and 21 h after the wash, and the proteasome activity in the cell lysates was measured using a chromogenic chymotrypsin substrate. We have previously established that the proteinase activity measured by this assay was predominantly (more than 90%) derived from the proteasome (Wang et al., 1997, Eur. J. Immunol., supra).

C57BL/6 spleen cells = experiment: Mixed lymphocyte culture (MLR), alloantigen-specific response; type: cell-based, mouse; details: MLR treated on day 2 with LAC 8 μM for 3 h; restimulated after 8 days
Method: The C57BL/6 spleen cells (H-2^b) were stimulated with mitomycin c-treated BALB/c spleen cells (H-2^d). On day 2 when most of the H-2^d-specific cells were activated, the mixed lymphocyte culture (MLR) was treated with lactacystin (LAC, 8 μM) for 3 h. After wash, the cells were put back in culture for additional 8 days, and then stimulated with either fresh BALB/c or C3H (H-2^k) spleen cells. […] The difference is more pronounced in day three of the culture.
It is therefore an embodiment of this invention to use proteasome inhibitors, particularly lactacystin in transplantation and autoimmune diseases where certain undesirable activated T cells can be repressed or eliminated and the rest of the T cell population is generally unaffected by such inhibitors.

CDK2 = experiment: Immunoprecipitation kinase assay, CDK2; type: cell-based, human; details: PHA-activated T cells; LAC 10 μM added once at 0 h; at 16 h and more so at 40 h
Method: Tonsillar T cells were activated with PHA (2 μg/ml) for a period as indicated in each graph. LAC (10 μM) was added once at 0 h. The cells were harvested at 16 h, 24 h, or 40 h as indicated. An equal amount of lysate protein ([…]) was precipitated with rabbit anti-CDK4, anti-CDK2 or anti-Cyclin E antisera (2.5 μg Ab/sample). The immune complexes were assayed for their kinase activities using histone H1 as a substrate. (A) CDK4 kinase activity. (B) CDK2 kinase activity. (C) Cyclin E-associated CDK activity. The membrane in (C) was subsequently hybridized with anti-Cyclin E (1 μg/ml) followed by ^125I-protein A for the evaluation of the protein level of Cyclin E.
Therefore, the proteasome activity during the early activation stage (0 h-16 h) is essential for the activation of the kinase at the G1 phase and early S phase. The unchanged CDK4 activity in the LAC-treated cells at 40 h served as an internal control for the repressed CDK2 activity and indicating the latter was not due to the viability problem.
Lymphocytes were lysed by a lysis buffer as used in the immunoblotting (Chen et al., 1996, supra), and cleared lysates were quantitated for their protein content. […] The proteins were then transferred to PVDF membranes and the signals were detected by autoradiography.

- active duration within the cell and in the culture media (proteasome): about 16 h
- time in which LAC loses its activity in the cells (proteasome; Jurkat cells after 3 h LAC 6 μM and wash): ≤ 21 h
- CDK2 kinase activity (CDK2): significantly inhibited
Compound: CC(=O)N[C@@H](CSC(=O)[C@]1([C@@H](O)C(C)C)NC(=O)[C@H](C)[C@@H]1O)C(=O)O [LAC, lactacystin]
- respiration after Complex I blockage (rotenone) on adding succinate (Jurkat cells; LAC 6 μM for 4 h): could not be resumed by adding succinate
- O2 consumption after Complex III (ascorbate and TMPD) (Jurkat cells; LAC for 4 h): could not be resumed by ascorbate and TMPD
- O2 consumption after the addition of ascorbate and TMPD (Jurkat cells; LAC for 4 h, FCCP as decoupling reagent): reduced augmentation of O2 consumption
- electron transport of the respiratory chain (Jurkat cells; within 4 h): reduce the electron transport at the complex IV
- proteasome activity in Jurkat cells (proteasome; 0 h after wash): almost completely inhibited
- proteasome activity in Jurkat cells (proteasome; 5 h after wash): still significantly inhibited
- proteasome activity in Jurkat cells (proteasome; 21 h after wash): returned to a near-normal level
- response to restimulation with BALB/c cells (C57BL/6 spleen cells): failed to respond to the BALB/c cells
- response to restimulation with third party C3H cells (C57BL/6 spleen cells): respond well to third party C3H
